The values that follow come from US20220339135A1, “COMPOSITIONS AND METHODS FOR MODULATING AN INFLAMMATORY RESPONSE” (Enzychem Lifesciences Corporation, priority 2019, published 2022).

The subject of assay [1] is TLR4/MD2 on the surface of Raw264.7 cells. In words: LPS-induced TLR4/MD2 internalization, confocal microscopy. It counts as cell-based. The following applies: LPS/PLH compared to LPS treated cells. The protocol:
Raw264.7 cells were divided into two groups: 1) LPS treated group and 2) LPS/PLAG treated group. For LPS treated group, cells were stimulated with LPS (100 ng/ml) for 0, 15, 30, 45, 60, 75, 90, 105, 120 minutes. For LPS/PLAG treatment, cells were pre-incubated with PLAG (100 μg/ml) for 1 hour and then stimulated with LPS (100 ng/ml) for 0, 15, 30, 45, 60, 75, 90, 105, 120 minutes. To detect TLR4/MD2 on the membrane surface, cells were fixed with 2% paraformaldehyde (Sigma-Aldrich) and were blocked with PBS containing 1% BSA (Gibco, Waltham, Mass., USA). They were incubated with rabbit anti-TLR4/MD2 antibody (Thermo) and Alexa488 conjugated anti-rabbit IgG (Invitrogen). For confocal microscopy analysis, cells were washed with PBS and mounted in DAPI-containing fluorescence microscopy mounting medium (Invitrogen). Samples were analyzed with a laser scanning confocal microscope (Carl Zeiss, Oberkochen, Germany).
Raw264.7 cells were divided into two groups: 1) LPS treated group and 2) LPS/PLAG treated group. […] These were analyzed by confocal microscopy. […]
To detect TLR4/MD2 on the membrane surface, cells were fixed with 2% paraformaldehyde (Sigma-Aldrich) and were blocked with PBS containing 1% BSA (Gibco, Waltham, Mass., USA). […] For confocal microscopy analysis, cells were washed with PBS and mounted in DAPI-containing fluorescence microscopy mounting medium (Invitrogen). […]

Assay [2] deals with chemo-radiation and PAK induced oral mucositis. In words: Chemo-radiation and PAK induced oral mucositis. The assay is classed as in vivo, mice. Conditions: PLAG 250 mg/kg oral daily, n=19. As to the method: To induce immunocompromised condition in mice of CRIN group and EC-18 group, mice were administered by intraperitoneal injection with 30 mg/kg of 5-FU (Sigma) once a day for 3 days (Sigma) and five days after the experiment initiated, 1Gy of γ-radiation at once. For the EC-18 group, EC-18 (Enzychem Lifesciences, Daejeon, Republic of Korea) was orally given at a dose of 250 mg/kg once a day during the study period. The experimental schedule is described in FIG. 1. On day 6 after the experiment initiated, all the mice of 2 groups (CRIN group, and EC-18 group) were anesthetized with 2% 2, 2, 2,-tribromoethanol by intraperitoneal injection and infected with P. aeruginosa K (PAK) by syringe in the tongue. 1 day after PAK injection, the condition of the tongue and survival rate of mice were monitored and recorded.
P. aeruginosa K was cultured in LB broth or on LB agar plates overnight at 37° C. until they were in log-phase growth. […] The bacterial pellet was suspended to the appropriated number of colony-forming unit (CFU) per milliliter in PBS, as determined by optical density and plating out a serial dilution on broth agar plates. […]
Chemoradiotherapy induced immunocompromised mice were challenged with PAK. […] After the challenge, mice were monitored for 1 day, and the survival rate of mice was recorded.

In assay [3] the test system is intracellular lysosomes of Raw264.7 cells. In words: LPS-induced lysosomal activity (LYSO-ID). Conditions: LPS/PLAG treatment. The assay is classed as cell-based. As to the method:
Raw264.7 cells were divided into two groups: 1) LPS treated group and 2) LPS/PLAG treated group. For the LPS treated group, cells were treated with 100 μg/ml of DMSO (as solvent control) for 1 hour and treated with LPS (100 ng/ml) for 15, 30, 60, and 120 minutes. For LPS/PLAG treated group, cells were treated with PLAG (100 μg/ml) for 1 hour and treated with LPS (100 ng/ml) for 15, 30, 60, and 120 minutes. Cells were then fixed and stained using rat anti-TLR4/MD2 antibody with Alexa488-conjugated anti-rat IgG secondary antibody. These were analyzed by confocal microscopy. Raw264.7 cells stimulated under the same conditions were fixed, permeabilized, and stained with CM-H2DCFDA, the LYSO-ID® Lysosomal Detection Kit and rabbit anti-p47phox. Confocal microscopy was performed; all data shown represent one experiment performed in triplicate.

As to `CCCCC/C=C\C/C=C\CCCCCCCC(=O)OC(CO)COC(=O)CCCCCCCCCCCCCCC` (stereo not shown) [PLH, palmitic linoleic hydroxyl glycerol, reference compound], the “effect on TLR4/MD2 internalization and return to the surface” value in assay [1] is given as “had no effect”.
Take `CCCCC/C=C\C/C=C\CCCCCCCC(=O)OC(COC(C)=O)COC(=O)CCCCCCCCCCCCCCC` (racemic) [PLAG, 1-palmitoyl-2-linoleoyl-3-acetylglycerol]: the “survival rate after 7 days” value in assay [2] came to 84%. Moreover, in assay [3], the lysosomal activity initiated amounted to 15 min and the “return to homeostatic levels of lysosomal activity” value stood at 60 min.
